Experimental data as given in the supplement of paper PMC13380429.

How the values were obtained:
Details in all cases: 72 h
U2OS [1] = test: cell viability relative to DMSO; higher = less toxic
Calu-3 [2] = test: as above
Caco-2 [3] = test: as above
HepG2 [4] = test: as above
Vero E6 [5] = test: as above
U2OS [6] = test: drug sensitivity score (DSS) for viability; higher = more toxic; extreme values may be limits of the assay
Calu-3 [7] = test: as above
Caco-2 [8] = test: as above
HepG2 [9] = test: as above
Vero E6 [10] = test: as above
U2OS [11] = test: relative viability EC50 (midpoint between 100% and the lowest measured viability); higher = less toxic
Calu-3 [12] = test: as above
Caco-2 [13] = test: as above
HepG2 [14] = test: as above
Vero E6 [15] = test: as above

Row | SMILES | cell viability (U2OS [1]; 1 nM) [%] | cell viability (U2OS [1]; 10 nM) [%] | cell viability (U2OS [1]; 100 nM) [%] | cell viability (U2OS [1]; 1000 nM) [%] | cell viability (U2OS [1]; 10000 nM) [%] | cell viability (Calu-3 [2]; 1 nM) [%] | cell viability (Calu-3 [2]; 10 nM) [%] | cell viability (Calu-3 [2]; 100 nM) [%] | cell viability (Calu-3 [2]; 1000 nM) [%] | cell viability (Calu-3 [2]; 10000 nM) [%] | cell viability (Caco-2 [3]; 1 nM) [%] | cell viability (Caco-2 [3]; 10 nM) [%] | cell viability (Caco-2 [3]; 100 nM) [%] | cell viability (Caco-2 [3]; 1000 nM) [%] | cell viability (Caco-2 [3]; 10000 nM) [%] | cell viability (HepG2 [4]; 1 nM) [%] | cell viability (HepG2 [4]; 10 nM) [%] | cell viability (HepG2 [4]; 100 nM) [%] | cell viability (HepG2 [4]; 1000 nM) [%] | cell viability (HepG2 [4]; 10000 nM) [%] | cell viability (Vero E6 [5]; 1 nM) [%] | cell viability (Vero E6 [5]; 10 nM) [%] | cell viability (Vero E6 [5]; 100 nM) [%] | cell viability (Vero E6 [5]; 1000 nM) [%] | cell viability (Vero E6 [5]; 10000 nM) [%] | drug sensitivity score (U2OS [6]) | drug sensitivity score (Calu-3 [7]) | drug sensitivity score (Caco-2 [8]) | drug sensitivity score (HepG2 [9]) | drug sensitivity score (Vero E6 [10]) | relative viability EC50 (U2OS [11]) [µM] | relative viability EC50 (Calu-3 [12]) [µM] | relative viability EC50 (Caco-2 [13]) [µM] | relative viability EC50 (HepG2 [14]) [µM] | relative viability EC50 (Vero E6 [15]) [µM]
1 | C[C@@H]1[C@H](O)[C@@H](C)/C=C/C=C/C=C/C=C/C=C/C=C/C=C/[C@H](O[C@@H]2O[C@H](C)[C@@H](O)[C@H](N)[C@@H]2O)C[C@@H]2O[C@](O)(C[C@@H](O)C[C@@H](O)[C@H](O)CC[C@@H](O)C[C@@H](O)CC(=O)O[C@H]1C)C[C@H](O)[C@H]2C(=O)O [amphotericin-b] | 101 | 97 | 101 | 97.6 | 101 | 98.4 | 105 | 95.7 | 103 | 99.5 | 106 | 91.1 | 108 | 100 | 98.6 | 97.4 | 102 | 101 | 101 | 101 | 101 | 102 | 103 | 101 | 99.6 | 0 | 0 | 0 | 0 | 0 | > 10 | > 10 | > 10 | > 10 | > 10
2 | Cc1c(C(=O)NCc2cccnc2)nn(-c2ccc(Cl)cc2Cl)c1-c1ccc(Cl)cc1 [MJ-15] | 99.2 | 96.5 | 102 | 88.8 | 95.3 | 90.5 | 86.7 | 103 | 90.4 | 97 | 88 | 87.7 | 92.2 | 84.3 | 79.1 | 91.8 | 111 | 96.2 | 101 | 98.8 | 92.5 | 96.4 | 94.8 | 90.2 | 99.2 | 0 | 0 | 0 | 0 | 0 | > 10 | > 10 | > 10 | > 10 | > 10
3 | COc1ccc(C(=O)NCc2cccnc2)cc1C(=O)NCc1cccnc1 [picotamide] | 97.9 | 95 | 92.8 | 101 | 105 | 97.3 | 97.8 | 103 | 102 | 111 | 101 | 87.9 | 87 | 120 | 98.6 | 102 | 99.5 | 120 | 119 | 97 | 99.7 | 101 | 109 | 98.7 | 103 | 0 | 0 | 0 | 0 | 0 | > 10 | > 10 | > 10 | > 10 | > 10
4 | CN(C)C(=O)Nc1cccc(-c2ccc(N(C)C)cc2)c1 [atglistatin] | 96.4 | 99.3 | 97.8 | 98.5 | 96.5 | 111 | 99.2 | 90.1 | 96.6 | 103 | 84.3 | 100 | 92.2 | 88.7 | 104 | 98.2 | 97.9 | 99.4 | 108 | 113 | 99 | 99.7 | 98.3 | 97.6 | 107 | 0 | 0 | 0 | 0 | 0 | > 10 | > 10 | > 10 | > 10 | > 10
5 | COc1cc2c(cc1OC)[C@@H](Cc1cc(OC)c(OC)c(OC)c1)[N+](C)(CCCOC(=O)CC/C=C/CCC(=O)OCCC[N+]1(C)CCc3cc(OC)c(OC)cc3[C@H]1Cc1cc(OC)c(OC)c(OC)c1)CC2 (stereo not given in full) [mivacurium] | 102 | 99.8 | 98.6 | 96.3 | 100 | 112 | 97.6 | 101 | 89.7 | 94 | 107 | 98.9 | 109 | 123 | 94.5 | 101 | 95.2 | 99.4 | 84.3 | 97.7 | 106 | 112 | 105 | 97.7 | 93 | 0 | 0 | 0 | 0 | 0 | > 10 | > 10 | > 10 | > 10 | > 10
6 | OCCN1CCN(CCCN2c3ccccc3C=Cc3ccccc32)CC1 [opipramol] | 97.6 | 95.6 | 101 | 103 | 97 | 100 | 93.3 | 99.7 | 100 | 98 | 89.8 | 102 | 88.6 | 100 | 76.6 | 107 | 104 | 98 | 91.4 | 92.1 | 107 | 99.8 | 104 | 98.5 | 83.9 | 0 | 0 | 0.8 | 0 | 0.5 | > 10 | > 10 | > 10 | > 10 | > 10
7 | O=C1NC(c2cccc([N+](=O)[O-])c2)=CCN1c1ccccc1O [icilin] | 95.5 | 103 | 98.3 | 103 | 104 | 97.4 | 94.1 | 93.7 | 108 | 108 | 93.4 | 102 | 97.6 | 99.2 | 100 | 94.3 | 93.4 | 103 | 98 | 101 | 91.9 | 94.3 | 94 | 94.9 | 106 | 0 | 0 | 0 | 0 | 0 | > 10 | > 10 | > 10 | > 10 | > 10
8 | CC(C)c1cc(-c2n[nH]c(=O)n2-c2ccc3c(ccn3C)c2)c(O)cc1O [ganetespib] | 98.4 | 96.7 | 3.7 | 3.4 | 1.5 | 91.5 | 95.9 | 47.8 | 35.7 | 32.5 | 99.9 | 95.4 | 37.4 | 35.2 | 29.3 | 97.7 | 56.6 | 2.3 | 1.2 | 1.1 | 101 | 107 | 46.3 | 25.9 | 29.1 | 30.2 | 19.1 | 21.3 | 35.3 | 19.9 | 0.0307 | 0.0478 | 0.0369 | 0.0114 | 0.0685
9 | Cc1nc2c(c(=O)[nH]1)CSCC2 [DR-2313] | 102 | 99.1 | 99.9 | 97.1 | 99.1 | 105 | 92.2 | 95 | 95.5 | 91.9 | 92.6 | 88.9 | 90.1 | 95.7 | 97.4 | 99.8 | 101 | 98.3 | 108 | 94.6 | 98 | 100 | 97.8 | 94.6 | 108 | 0 | 0 | 0 | 0 | 0 | > 10 | > 10 | > 10 | > 10 | > 10
10 | CCOC(=O)Nc1ccc(NCc2ccc(F)cc2)cc1N [Retigabine] | 102 | 97.4 | 104 | 97 | 98 | 91.8 | 88.5 | 98.4 | 103 | 98.3 | 100 | 102 | 104 | 96.8 | 106 | 97.6 | 106 | 100 | 102 | 105 | 89.5 | 99.1 | 96.1 | 93.5 | 111 | 0 | 0 | 0 | 0 | 0 | > 10 | > 10 | > 10 | > 10 | > 10
11 | N[C@@H]1c2cccnc2[C@H](OC(=O)N2CCC(n3c(=O)[nH]c4ncccc43)CC2)CC[C@H]1c1cccc(F)c1F [rimegepant] | 102 | 96.1 | 101 | 97.2 | 100 | 90.7 | 95.3 | 98.4 | 92.9 | 97.6 | 99.3 | 94.5 | 98.1 | 91.2 | 102 | 92.4 | 98.6 | 98.8 | 106 | 104 | 97 | 96.8 | 91.6 | 99.7 | 112 | 0 | 0 | 0 | 0 | 0 | > 10 | > 10 | > 10 | > 10 | > 10
12 | CC(C)n1c(=O)n(C(=O)N[C@H]2C[C@H]3CC[C@@H](C2)N3C)c2ccccc21 [BIMU-8] | 102 | 103 | 99.1 | 101 | 99.1 | 96.4 | 105 | 96.3 | 92.3 | 93.9 | 99 | 105 | 98.1 | 102 | 96.9 | 93.2 | 95.2 | 90.5 | 93.2 | 97 | 105 | 99.6 | 99.6 | 98.9 | 94.7 | 0 | 0 | 0 | 0 | 0 | > 10 | > 10 | > 10 | > 10 | > 10
13 | CC1=NN(c2ccc(C(=O)O)cc2)C(=O)C1=Cc1ccc(-c2cc(C)c(C)cc2[N+](=O)[O-])o1 [C646] | 102 | 95.6 | 98.8 | 94.9 | 92.9 | 106 | 98.1 | 89.3 | 89.6 | 98.9 | 87.3 | 90.5 | 101 | 94 | 98.1 | 90 | 102 | 92.5 | 93.7 | 90.5 | 97.3 | 102 | 100 | 100 | 99 | 0 | 0.4 | 0 | 0 | 0 | > 10 | > 10 | > 10 | > 10 | > 10
